Measured values: the supplement of paper PMC10733146

Tests used:
Assay in all cases: viability relative to DMSO control (fraction); higher = less drug effect (more viable cells)
Settings in all cases: 48 h
[1] = system: primary AML patient cells (S006)
Outline: (§1)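 Primary mononuclear tumour cells (Ficoll-isolated from blood or bone marrow, or processed lymph node; fresh or cryopreserved) were plated at 4 × 10^4 cells per well in 384-well plates with pre-plated compounds at five concentrations, one well each. Medium was RPMI-1640 with penicillin/streptomycin, L-glutamine and human serum, at 37 °C and 5% CO2 for 48 h. Viability was read as CellTiter-Glo luminescence relative to the median of 16 inner DMSO wells.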

[2] = system: primary B-PLL patient cells (S016)
Outline: as §1

[3] = system: primary CLL patient cells (S031)
Outline: as §1

[4] = system: primary AML patient cells (S009)
Outline: as §1

[5] = system: primary MCL patient cells (S063)
Outline: as §1

[6] = system: primary BL patient cells (S005)
Outline: as §1

[7] = system: primary MCL patient cells (S053)
Outline: as §1

[8] = system: primary ALL patient cells (S088)
Outline: as §1

[9] = system: primary AML patient cells (S056)
Outline: as §1

[10] = system: primary MCL patient cells (S041)
Outline: as §1

[11] = system: primary AML patient cells (S060)
Outline: as §1

[12] = system: primary AML patient cells (S071)
Outline: as §1

[13] = system: primary AML patient cells (S012)
Outline: as §1

[14] = system: primary AML patient cells (S085)
Outline: as §1

[15] = system: primary FL patient cells (S087)
Outline: as §1

[16] = system: primary CLL patient cells (S043)
Outline: as §1

[17] = system: primary AML patient cells (S017)
Outline: as §1

[18] = system: primary AML patient cells (S072)
Outline: as §1

[19] = system: primary AML patient cells (S079)
Outline: as §1

[20] = system: primary DLBCL patient cells (S082)
Outline: as §1

Molecule `CC(C)c1cc(-c2n[nH]c(=O)n2-c2ccc3c(ccn3C)c2)c(O)cc1O` [Ganetespib] has a viability ([1]; 0.0032 µM) of 0.846, a viability ([1]; 0.016 µM) of 0.154 and a viability ([1]; 0.08 µM) of 0.134. For the same molecule, the viability ([1]; 0.4 µM) was 0.198, the viability ([1]; 2 µM) was 0.186 and the viability ([2]; 0.0032 µM) was 1.03. It also gave a viability ([2]; 0.016 µM) of 0.967, a viability ([2]; 0.08 µM) of 0.569 and a viability ([2]; 0.4 µM) of 0.552. For the same molecule, the viability ([2]; 2 µM) was 0.514, the viability ([3]; 0.0032 µM) was 0.998 and the viability ([3]; 0.016 µM) was 0.873. The viability ([3]; 0.08 µM) was 0.324, the viability ([3]; 0.4 µM) was 0.267 and the viability ([3]; 2 µM) was 0.256. The viability ([4]; 0.0032 µM) was 0.953, the viability ([4]; 0.016 µM) was 0.743 and the viability ([4]; 0.08 µM) was 0.542. The viability ([4]; 0.4 µM) was 0.56, the viability ([4]; 2 µM) was 0.567 and the viability ([5]; 0.0032 µM) was 1. The viability ([5]; 0.016 µM) was 1.05, the viability ([5]; 0.08 µM) was 0.136 and the viability ([5]; 0.4 µM) was 0.0898. The viability ([5]; 2 µM) was 0.0823, the viability ([6]; 0.0032 µM) was 0.871 and the viability ([6]; 0.016 µM) was 0.871. It also gave a viability ([6]; 0.08 µM) of 0.637, a viability ([6]; 0.4 µM) of 0.725 and a viability ([6]; 2 µM) of 0.716. It also gave a viability ([7]; 0.0032 µM) of 0.941, a viability ([7]; 0.016 µM) of 0.809 and a viability ([7]; 0.08 µM) of 0.326. For the same molecule, the viability ([7]; 0.4 µM) was 0.332, the viability ([7]; 2 µM) was 0.325 and the viability ([8]; 0.0032 µM) was 0.823. The viability ([8]; 0.016 µM) was 0.425, the viability ([8]; 0.08 µM) was 0.274 and the viability ([8]; 0.4 µM) was 0.259. It also gave a viability ([8]; 2 µM) of 0.267, a viability ([9]; 0.0032 µM) of 0.705 and a viability ([9]; 0.016 µM) of 0.203. The viability ([9]; 0.08 µM) was 0.137, the viability ([9]; 0.4 µM) was 0.176 and the viability ([9]; 2 µM) was 0.169. For the same molecule, the viability ([10]; 0.0032 µM) was 0.98, the viability ([10]; 0.016 µM) was 0.846 and the viability ([10]; 0.08 µM) was 0.533. It also gave a viability ([10]; 0.4 µM) of 0.406, a viability ([10]; 2 µM) of 0.404 and a viability ([11]; 0.0032 µM) of 0.97. For the same molecule, the viability ([11]; 0.016 µM) was 1.05, the viability ([11]; 0.08 µM) was 0.154 and the viability ([11]; 0.4 µM) was 0.118. It also gave a viability ([11]; 2 µM) of 0.107, a viability ([12]; 0.0032 µM) of 0.892 and a viability ([12]; 0.016 µM) of 0.357. It also gave a viability ([12]; 0.08 µM) of 0.142, a viability ([12]; 0.4 µM) of 0.167 and a viability ([12]; 2 µM) of 0.164. The viability ([13]; 0.0032 µM) was 0.991, the viability ([13]; 0.016 µM) was 0.964 and the viability ([13]; 0.08 µM) was 0.131. It also gave a viability ([13]; 0.4 µM) of 0.126, a viability ([13]; 2 µM) of 0.121 and a viability ([14]; 0.0032 µM) of 0.973. For the same molecule, the viability ([14]; 0.016 µM) was 0.648, the viability ([14]; 0.08 µM) was 0.195 and the viability ([14]; 0.4 µM) was 0.251. The viability ([14]; 2 µM) was 0.264, the viability ([15]; 0.0032 µM) was 1.01 and the viability ([15]; 0.016 µM) was 1.01. The viability ([15]; 0.08 µM) was 0.853, the viability ([15]; 0.4 µM) was 0.881 and the viability ([15]; 2 µM) was 0.848. It also gave a viability ([16]; 0.0032 µM) of 0.928, a viability ([16]; 0.016 µM) of 0.917 and a viability ([16]; 0.08 µM) of 0.637. For the same molecule, the viability ([16]; 0.4 µM) was 0.535, the viability ([16]; 2 µM) was 0.521 and the viability ([17]; 0.0032 µM) was 1.07. It also gave a viability ([17]; 0.016 µM) of 0.996, a viability ([17]; 0.08 µM) of 0.371 and a viability ([17]; 0.4 µM) of 0.326. The viability ([17]; 2 µM) was 0.31, the viability ([18]; 0.0032 µM) was 1.01 and the viability ([18]; 0.016 µM) was 0.884. The viability ([18]; 0.08 µM) was 0.412, the viability ([18]; 0.4 µM) was 0.39 and the viability ([18]; 2 µM) was 0.377. For the same molecule, the viability ([19]; 0.0032 µM) was 0.983, the viability ([19]; 0.016 µM) was 0.825 and the viability ([19]; 0.08 µM) was 0.398. For the same molecule, the viability ([19]; 0.4 µM) was 0.352, the viability ([19]; 2 µM) was 0.332 and the viability ([20]; 0.0032 µM) was 1.02. The viability ([20]; 0.016 µM) was 1.12, the viability ([20]; 0.08 µM) was 1.09 and the viability ([20]; 0.4 µM) was 1.04. For the same molecule, the viability ([20]; 2 µM) was 1.02.
